One block for each substance: values may come before it. Where no end group is shown, it is not given here.
What was measured:
[1] = tested on: human peripheral blood lymphocytes (PBL); assay: BrdU incorporation proliferation assay in human PBL; assay type: cell-based; conditions: for proliferation stimulating activity, in words: conclusions from Table 1
Protocol: The T101 peptide was tested for its ability to activate proliferation of mouse spleenocytes or thymocytes (two mouse strains were used: CD1 and Balb/C), as well as human peripheral blood lymphocytes (PBL). The proliferation activity was measured by 5-bromo 2′-deoxy-uridine (BrdU) incorporation into these cells.
Human PBL were isolated on a Ficole gradient from blood taken from volunteers and then plated in 96-well plates, again using RPMI 1640+10% FCS+Pen/Str.
The cells were treated with different concentrations of the peptide or saline (as above) and after 48 hours were labeled for 6 hours with BrdU and tested for BrdU incorporation into their nucleus.
In the next experiment, several deletion mutants of the T101 peptide were constructed and synthesized. These mutants were tested for their ability to stimulate proliferation in human PBL. The right-hand column indicates the fold increase in proliferation over proliferation in untreated cells.

[2] = Solubility in aqueous solution; assay type: physicochemical

Substance: Mut #1: 13 C-terminal amino acids of the T101 peptide: WTFFLPSTLWERK (listed as Homo sapiens)
Fold Increase in proliferation over proliferation in untreated cells [1]: 2.5-3 Fold
proliferation stimulating activity, in words [1]: very active

Substance: Mut #5: amino acids 36 to 48 of the T101 peptide: AVWWTFFLPSTLW (listed as Homo sapiens)
Fold Increase in proliferation over proliferation in untreated cells [1]: 2-2.2 Fold

Substance: Mut #2: amino acids 6 to 28 of the T101 peptide: SGEPVQSSGTKDMRSKSDSKRVS (listed as Homo sapiens)
Fold Increase in proliferation over proliferation in untreated cells [1]: 1.4-1.6 Fold
proliferation stimulating activity, in words [1]: relatively low activity

Substance: Mut #6: amino acids 36 to 51 of the T101 peptide in the reverse order: KREWLTSPLFFTWWVA (listed as Homo sapiens)
Fold Increase in proliferation over proliferation in untreated cells [1]: 2-2.4 Fold

Substance: Mut #4: 8 C-terminal amino acids of the T101 peptide: PSTLWERK (Table 1 prints PSTLTWERK) (listed as Homo sapiens)
Fold Increase in proliferation over proliferation in untreated cells [1]: 1.1-1.3 Fold
proliferation stimulating activity, in words [1]: almost no activity

Substance: Mut #3: 23 C-terminal amino acids of the T101 peptide: DKQLISKAVWWTFFLPSTLWERK (listed as Homo sapiens)
Fold Increase in proliferation over proliferation in untreated cells [1]: 2.2-2.8 Fold
proliferation stimulating activity, in words [1]: very active

solubility in an aqueous solution [2]: soluble
Substance: LHLWLSGEPVQSSGTKDMRSKSDSKRVSDKQLISKAVWWTFFLPSTLWERK [T101 peptide]
